Key:
[1] = test system: spontaneously contracting colonies (transdifferentiated cardiomyocytes); experiment: Calcium imaging and testing of chronotropic agents; assay type: cell-based, mouse; conditions: 1 μM isoproterenol or 10 μM carbachol; 10 minutes after addition
Protocol: Cells were loaded with Fluo-4-AM (5 μM, 30 min, 37° C.) (F14201, Invitrogen), and imaged with an Olympus Fluoview 1000 inverted confocal microscope with a 40× oil immersion lens (numerical aperture 1.3). Line scan imaging mode was used to measure spontaneous Ca2^+ transients at 37° C. Image processing and data analysis were performed as previously described (Ouyang, K. et al., J Biol Chem 280, 15898-902 (2005)). For drug testing, all measurements were repeated 10 minutes after the addition of isoproterenol (1 μM; Sigma) or Carbachol (10 μM; Sigma-Aldrich).

[2] = test system: R1 ES cells; experiment: Serum-free monolayer cardiac differentiation of ES cells, beating colonies; assay type: cell-based, mouse; conditions: early treatment window
Protocol: Having identified the first serum-free monolayer condition for cardiac differentiation of ES cells, we sought to test its efficacy as a platform to discover regulators of cardiomyogenesis. A collection of approximately 200 small molecules and growth factors reported to be influential in developmental processes were assembled. R1 ES cells were grown and plated for differentiation on Matrigel in 24-well plates using the media and growth factors described above. The screening collection was then added and removed from each well at specific time points in order to account for different developmental time windows. The collection was screened at days 0-2, 2-5, and 5-7.
Cells are plated at a density of 200,000 cells/well of a 6-well plate in 2.5 ml of ESGM. 6-well plates are coated overnight at 4° C. with 1 ml of Matrigel (BD Bioscience) diluted 50× from stock concentration. 24 hours after plating, or after sufficient colony size was achieved, cells are switched into chemically defined medium (CDM) and treated with 4 uM BIO (Calbiochem) and 20 ng/ml BMP-4 (R&D). CDM contains RPMI 1640, 0.5×N2, 1×B27 (without Vitamin A), 0.5× Glutamax, 0.55 mM beta-mercaptoethanol, 1× non-essential amino acids, 1× nucleosides. At Day 2, medium is changed, and again CDM containing 4 uM BIO with 20 ng/ml BMP-4 is added to the cells. At Day 5, cells are washed once with PBS and medium is changed to CDM containing 100 ng/ml Dkk-1 (R&D). At Day 7, medium is changed, and again CDM containing 100 ng/ml Dkk-1 is added to the cells. At Day 10, cells are trypsinized (0.05% trypsin) (Approximately 5 minutes at 37° C., or until cells begin to detach) and replated onto gelatin coated 6-well plates in CDM with no additional growth factors. By this time, the cells will have formed tight colonies that will be difficult to disrupt (Supplementary FIG. 2b). […] The trypsin is used primarily to detach the cells rather than to dissociate them to a single cell suspension. It is preferable for the colonies to remain intact. The trypsin is briefly quenched with MEF media, cells are centrifuged, and resuspended in CDM for plating. Medium is refreshed as needed to remove dead cells and debris (every 1 to 2 days).

[3] = test system: R1 ES cells; experiment: QRT-PCR of markers in differentiating ES cells; assay type: cell-based, mouse; conditions: treated day 0-2, harvested day 4.5
Protocol: To further analyze the mechanism of action of the cardiogenic effect seen with these molecules, QRT-PCR was carried out on cells treated from day 0-2 and harvested at day 4.5.
QRT-PCR was carried out to observe the induction of cardiomyogenesis at the transcript level. At day 5, when A83-01 treatment begins, the predominant state is that of a developed primitive streak type population that is yet to display robust expression of markers of cardiac precursors such as Nkx2.5, Isl-1, and c-kit.
Total RNA from each sample was prepared from 5×10^4 cells using RNeasy mini kit (Qiagen). Reverse transcription was carried out by using Reverse Transcription System (Promega) and PCR performed using PCR Super Mix (Invitrogen).

[4] = test system: mouse embryonic fibroblasts (MEFs); experiment: Direct cardiac reprogramming of fibroblasts, contracting patch/colony counts; assay type: cell-based; conditions: standard reprogramming media with LIF for the first nine days
Source text: Having successfully initiated the early cardiogenic program in MEFs, we next sought to induce robust activation of mid-stage cardiac gene expression and to ultimately generate spontaneously contracting patches of cardiac cells, a hallmark of terminal differentiation that is easily observed and quantified. To this end, we treated three-factor transduced MEFs with chemically defined media (CDM) as well as cytokines and small molecules that might enhance cardiogenesis by regulating TGFβ, bone morphogenetic protein (BMP), Hedgehog, Wnt, or Notch pathway activity. Treatments were done individually and in combination, and at different times during the reprogramming process. Despite the general unsuitability of the resulting protocol for iPSC generation, we also explored whether small-molecule inhibition of JAK-STAT (Janus kinase-signal transducer and activator of transcription), PI3K (phosphatidylinositol 3-kinase), or Wnt signalling during the early stages of the protocol might boost the effectiveness of cardiomyogenesis by preventing even a small number of iPSC intermediates from forming. Finally, we experimented with a more gradual transition between different media by lowering FBS concentration step-wise in increments of 1-4% over 3-6 days (immediately prior to switching to CDM). […] During this initial nine-day period, the small-molecule JAK inhibitor JD is continuously kept in the media at a concentration of 0.5 μM. From day nine onwards, the cells are cultured in CDM, with the cardioinductive growth factor BMP4 (Snyder, A. et al., J Cell Biochem 93, 224-32 (2004)) being added at 20 ng/ml for the first five days (FIG. 1b).
All MEFs (129S2/SvPasCrlf) were derived according to WiCell protocols (https://www.wicell.org/index.php?option=com_docman&task=doc_download&gid=687). TTFs were a kind gift of Dr. Hans Schöler. Secondary MEFs were derived as previously described (Wernig, M. et al., Nat Biotechnol 26, 916-24 (2008)). All results were initially obtained and confirmed with the Nebulette-LacZ MEFs; to ensure reproducibility and minimize inter-experimental variation, reported results almost exclusively derive from experiments utilizing secondary dox-inducible MEFs using the optimum induction period. MEFs were initially passaged on gelatin-coated (0.1% for 2 hours at 37° C.) tissue culture dishes in DMEM supplemented with 10% FBS, 2 mM Glutamax and 0.1 mM NEAA (all components from Invitrogen, Carlsbad, Calif.). Prior to viral transduction, cells were seeded onto Matrigel (BD Biosciences, Franklin Lakes, N.J.) or Geltrex (Invitrogen)-coated plates (1:40, overnight at 4° C.) at 3.5×10^4 cells per well of a six well plate (7×10^4 cells for TTFs) in the same media. […]

[5] = test system: secondary MEFs; experiment: Neural transdifferentiation of secondary MEFs with exposure to LIF-containing medium; assay type: cell-based, mouse
Protocol: NGFP1 Dox-inducible iPS cells (Hanna J. et al., Nature (2009); Hanna, J. et al., Cell 133(2):250-264 (2008)) (Stemgent) were injected into C57BL/6 blastocysts and implanted into surrogate mice (CD1, Harlan). Chimeric embryos were isolated at E12.5-13.5. Heads, developing organs and spinal cords were carefully removed from the embryos and MEFs were prepared and selected as previously described (Hanna J. et al., Nature (2009); Wernig, M. et al., Nat Biotechnol 26(8):916-924 (2008); Hanna, J. et al., Cell 133(2):250-264 (2008)). For reprogramming, secondary MEFs (p3-4) were plated on Geltrex-coated culture dishes at 1.5-2×10^4 cells/cm^2 in MEF medium (Dullbecco's modified Eagle's medium supplemented with 10% fetal bovine serum, 0.1 mM non-essential amino acids, and 2 mM Glutamax). Doxycycline (Sigma-Aldrich, 2-8 μg/ml) treatment was initiated the next morning (Day 0) and continued until the designated day(s). Cells were cultured in MEF medium for an additional day and changed to reprogramming initiation medium (RepM-Ini; knock-out DMEM supplemented with 10% knock-out serum replacer, 5% FBS, 0.1 mM NEAA, 2 mM Glutamax, and 0.055 mM β-mercaptoethanol) for three days. For neural stem/progenitor reprogramming, the medium was changed into neural reprogramming medium (RepM-Neural; Advanced DMEM/F12 and Neurobasal medium were mixed by 1:1 and supplemented with 0.05% bovine serum albumin, 1×N2, 1×B27, 2 mM Glutamax, 0.11 mM β-mercaptoethanol, 20 ng/ml FGF2, 2 ng/ml FGF4, and 20 ng/ml EGF). RepM-Pluri is the same as RepM-Ini, with the addition of 1000 units/ml LIF (Millipore).
Total RNA was extracted from samples at the designated time points using the RNeasy Plus Mini Kit with QiaShredder (Qiagen). One microgram of total RNA per sample was reverse-transcribed using the iScript cDNA synthesis kit (Bio-Rad) and the cDNA was diluted with 130 ul of water. 1/50 of the diluted cDNA was used for quantitative PCR with iQ SYBR Green Supermix on the CFX96 system (Bio-Rad). All qPCR reactions were done in duplicate or triplicate, and the expression data were normalized to both Gapdh and β-actin expression using CFX manager software (Bio-Rad). All primer sequences are listed in previous publications (Hanna J. et al., Nature (2009); Wernig, M. et al., Nat Biotechnol 26(8):916-924 (2008); Greber, B. et al., Cell Stem Cell 6(3):215-226 (2010)).
Samples were washed once with D-PBS (Invitrogen, without Ca^2+ and Mg^2+) and were fixed with a 4% pure-formaldehyde solution (Electron Microscopy Sciences) with 0.15% picric acid (Sigma-Aldrich) in D-PBS for 20 min, followed by three washes with D-PBS. Blocking and permeabilization were done with a 3% BSA (Jackson ImmunoResearch) and 0.3% Triton X-100 (Sigma-Aldrich) solution in D-PBS for 1 hr at room temperature. […]

Compound | decay period (τ) of calcium transients [1] | frequency of spontaneous calcium transients [1] | cardiac differentiation / percentage of beating colonies [2] | expression of Brachyury T, Flk-1, GATA-4 and MESP1 [3] | decline in beating colony number [4] [fold] | onset of beating [4] | gene expression of Sox1, Pax6, Nanog, Rex1 ([5]; day 9) | number of PLZF-expressing colonies ([5]; day nine, as little as one day LIF exposure) | Sox17, T, and FGF5 expression ([5]; days 9, 11, and 13) | number of SSEA1-expressing cells ([5]; flow cytometry)
C[N+](C)(C)CCOC(N)=O [carbachol] | opposite effects | opposite effects | – | – | – | – | – | – | – | –
CC(C)NCC(O)c1ccc(O)c(O)c1 (stereo not drawn) [isoproterenol] | shortened | significantly increased | even more potent cardiac inducing effect than BayK 8644 | increased | – | – | – | – | – | –
LIF: leukaemia inhibitory factor, added to standard reprogramming medium | – | – | – | – | ~25 | four-day delay | down-regulation of Sox1 and Pax6 with concomitant up-regulation of Nanog and Rex1 | clearly decreased | increased | increases
